Assay results: patent US20020068838A1, “AROMATIC AMIDES, THEIR PREPARATION PROCESS AND THEIR USE AS PESTICIDES” (priority 1997, published 2002)

Tests used:
Assay type in all cases: in vivo
[1] = tested on: Heliothis virescens; assay: Study on Heliothis virescens (artificial medium surface treatment); conditions: starting from a dose of 300 ppm; neonate larva; after seven days; 25 C
Description: The product was dissolved at the desired concentration in an acetone-water mixture (50-50). 50 μl of solution were deposited on the surface of a small well containing approximately 2 grams of plant-based artificial medium. One neonate larva of Heliothis virescens was then introduced into each well, which was sealed with a sheet of cellophane. The tests were kept at a temperature of 25 C., with a photoperiod of twelve hours. The mortality of the larvae was checked after seven days.

[2] = tested on: Spodoptera littoralis; assay: Study on Spodoptera littoralis (haricot leaf dip test); conditions: starting from a dose of 300 ppm, after seven days, 25 C
Description: The product was dissolved at the desired concentration in an acetone-water mixture (50-50). Haricot leaves (Phaseolus vulgaris, var. […]) were immersed for five seconds in the solution, then left to dry in a Petri dish for one hour. Ten larvae of Spodoptera littoralis were then added to each dish. These were kept at a temperature of 25 C., with a photoperiod of twelve hours. After seven days, the mortality of the larvae was checked and the foliar surface consumed was evaluated.

[3] = tested on: Phaedon cochleariae; assay: Study on Phaedon cochleariae (foliar disk dip test, Chinese cabbage); conditions: starting from a dose of 300 ppm; adults; after seven days; 25 C
Description: The product was dissolved at the desired concentration in an acetone-water mixture (50-50). Foliar disks of Chinese cabbage (Brassica pekinensis) were immersed for five seconds in the solution, then left to dry for one hour. Ten adults (a mixture of males and females) were added into a Petri dish containing a foliar disk each. These were kept at a temperature of 25 C., with a photoperiod of twelve hours. After seven days, the mortality of the insects was checked and the foliar surface consumed was evaluated.

[4] = tested on: Leptinotarsa decemlineata; assay: Study on Leptinotarsa decemlineata (aubergine foliar disk dip test); conditions: starting from a dose of 300 ppm; larvae (3rd stage); after four days; 25 C
Description: The product was dissolved at the desired concentration in an acetone-water mixture (50-50). Foliar disks of aubergine were immersed in the solution, then left to dry for one hour. Ten larvae (3rd stage) were added into a Petri dish each containing a foliar disk. These were kept at a temperature of 25 C. After four days, the mortality of the insects was checked.

Cc1ccccc1NC(=O)c1ccc(CC(F)Cc2ccc(Cl)c(Cl)c2)cc1 (stereo not drawn) [Example 1, 4-[3-(3,4-dichlorophenyl)-2-fluoropropyl]-N-(2-methylphenyl)-benzamide]
activity (mortality of the larvae) [1]: good activity
activity (mortality of the larvae and foliar surface consumed) [2]: good activity

Cc1ccccc1NC(=O)c1ccc(CC(F)=Cc2ccc(Cl)c(Cl)c2)cc1 [Example 2]
activity (mortality of the larvae) [1]: good activity
activity (mortality of the larvae and foliar surface consumed) [2]: good activity

CC(=CCc1ccc(C(=O)Nc2ccccc2C)cc1)c1ccc(Cl)c(Cl)c1 [Example 5, 4-[3-(3,4-dichlorophenyl)-2-butenyl]-N-(2-methylphenyl)-benzamide]
activity (mortality of the larvae) [1]: good activity
activity (mortality of the larvae and foliar surface consumed) [2]: good activity

Cc1ccccc1NC(=O)c1ccc(CC=C(Cl)c2ccc(Cl)c(Cl)c2)cc1 [Example 6, 4-[3-chloro-3-(3,4-dichlorophenyl)-2-propenyl]-N-(2-methylphenyl)-benzamide]
activity (mortality of the larvae) [1]: good activity
activity (mortality of the larvae and foliar surface consumed) [2]: good activity
activity (mortality of the insects and foliar surface consumed) [3]: good activity
activity (mortality of the insects) [4]: very interesting activity

Cc1ccccc1NC(=O)c1ccc(CC=Cc2ccc(Cl)c(Cl)c2)cc1 [Example 7, 4-[3-(3,4-dichlorophenyl)-2-propenyl]-N-(2-methylphenyl)-benzamide]
activity (mortality of the larvae) [1]: good activity
activity (mortality of the larvae and foliar surface consumed) [2]: good activity
